Experimental data: US10640450B1, “Hydroxytyrosol dihydrocaffeate having antioxidant activity and a method for preparing the same” (SHAANXI UNIVERSITY OF SCIENCE AND TECHNOLOGY, priority 2019, dated 2020)

Assay: DPPH radical scavenging activity assay
Format: biochemical
Settings: for DPPH Clearance rate: 30 min dark, room temperature, 517 nm, n = 3
Source text: 2,2-Diphenyl-1-picryl hydrazyl (DPPH) is an organic compound composed of a stable organic radical. In the DPPH molecule, due to the presence of multiple electron-withdrawing —NO2 and large π bonds of the benzene ring, nitrogen free radical is stabilized. Its methanol solution is purple and has a maximum absorption peak at 517 nm. After the addition of an antioxidant, DPPH captures an electron to be paired with the free electron, and the purple fades and turns into a yellow substance. The absorption at 517 nm disappears, and the degree of fading is quantitatively related to the number of electrons it captures. Based on this principle, a spectrophotometer is used to detect the change of the absorbance of the DPPH radical and the sample solution, and the ability of the sample to provide hydrogen atoms and scavenge free radicals can be measured.
(a) Preparation of DPPH solution: measuring exact amount of 2,2-diphenyl-1-picryl hydrazyl (DPPH) and dissolving in toluene to prepare a 0.2 mmoL/L DPPH solution, stored at 0° C. in dark.
(b) Preparation of test solution: Vc (vitamin C, positive control), hydroxytyrosol dihydrocaffeate (sample), hydroxytyrosol (control) and dihydrocaffeic acid (control). The sample solution was subjected to gradient dilution with toluene, and three sets of controls were separately dissolved in a test tube with a certain amount of toluene to prepare the same concentration gradient as the sample.
Sample liquid absorbance measurement: Taking 2 mL of test solution (Table 1: Vc, A, B, C), adding 2 mL of DPPH solution with concentration of […], mixing and reacting in the dark at room temperature for 30 min, adjusting to zero with toluene, and measuring at 517 nm. The absorbance A, was simultaneously measured for the absorbance of 2 mL of toluene mixed with 2 mL of the solution and the absorbance A0 of 2 mL of DPPH solution mixed with 2 mL of toluene (The experimental results are shown in Table 2).
Clearance rate (%)=[1−(Ai−Aj)/A0]*100% Clearance calculation: […]

## O=C1O[C@H]([C@@H](O)CO)C(O)=C1O [Vc, Vitamin C]
1.76 ppm in toluene
  DPPH Clearance rate: 23.16%
8.80 ppm in toluene
  DPPH Clearance rate: 33.47%
21.12 ppm in toluene
  DPPH Clearance rate: 79.63%
42.24 ppm in toluene
  DPPH Clearance rate: 89.55%
79.20 ppm in toluene
  DPPH Clearance rate: 97.42%
112.64 ppm in toluene
  DPPH Clearance rate: 97.53%
281.60 ppm in toluene
  DPPH Clearance rate: 98.29%
492.80 ppm in toluene
  DPPH Clearance rate: 99.06%
792.00 ppm in toluene
  DPPH Clearance rate: 99.10%
915.20 ppm in toluene
  DPPH Clearance rate: 99.28%

## O=C(CCc1ccc(O)c(O)c1)OCCc1ccc(O)c(O)c1 [A, 3,4-dihydroxyphenethyl 3-(3,4-dihydroxyphenyl)propanoate]
  antioxidant activity (in words): excellent antioxidant activity
1.76 ppm in toluene
  DPPH Clearance rate: 13.45%
8.80 ppm in toluene
  DPPH Clearance rate: 17.80%
21.12 ppm in toluene
  DPPH Clearance rate: 34.16%
42.24 ppm in toluene
  DPPH Clearance rate: 42.74%
79.20 ppm in toluene
  DPPH Clearance rate: 70.42%
112.64 ppm in toluene
  DPPH Clearance rate: 80.63%
281.60 ppm in toluene
  DPPH Clearance rate: 82.35%
492.80 ppm in toluene
  DPPH Clearance rate: 85.70%
792.00 ppm in toluene
  DPPH Clearance rate: 89.10%
915.20 ppm in toluene
  DPPH Clearance rate: 91.22%
Compared with hydroxytyrosol (B) and dihydrocaffeic acid (C) alone
  scavenging ability to DPPH radical compared with controls: much higher than those of hydroxytyrosol (B) control group and dihydrocaffeic acid (C) control groups
In the determined concentration range (1.76-915.20 ppm)
  highest scavenging rate of DPPH radical: 91.22%

## O=C(O)CCc1ccc(O)c(O)c1 [C, Dihydrocaffeic acid]
1.76 ppm in toluene
  DPPH Clearance rate: 6.27%
8.80 ppm in toluene
  DPPH Clearance rate: 7.46%
21.12 ppm in toluene
  DPPH Clearance rate: 13.42%
42.24 ppm in toluene
  DPPH Clearance rate: 19.21%
79.20 ppm in toluene
  DPPH Clearance rate: 32.36%
112.64 ppm in toluene
  DPPH Clearance rate: 37.87%
281.60 ppm in toluene
  DPPH Clearance rate: 53.23%
492.80 ppm in toluene
  DPPH Clearance rate: 59.82%
792.00 ppm in toluene
  DPPH Clearance rate: 69.01%
915.20 ppm in toluene
  DPPH Clearance rate: 70.28%
